This is an account of results in paper PMC9239059, “Structure-Guided Synthesis of FK506 and FK520 Analogs with Increased Selectivity Exhibit In Vivo Therapeutic Efficacy against Cryptococcus” (mBio, 2022).

The test concerns T1, Cryptococcus neoformans (H99).
T1 construct: H99
Description: microbe, parasite or virus in culture. Set-up: CLSI M27-A3 broth microdilution in RPMI 1640 at 37 C, growth inhibition of C. neoformans (MIC). The settings on record: Cryptococcus neoformans, read-out: MIC (μg/mL) against: / Cryptococcus neoformans (H99)^a. The procedure: In vitro antifungal activities of FK506, FK520, and analogs were assessed in RPMI 1640 (Sigma-Aldrich) for all strains tested. MICs/minimum effective concentrations (MECs) for each drug were measured using modified Clinical and Laboratory Standards Institute (CLSI) M38-A2 and M27-A3 standard in vitro antifungal susceptibility protocols. Broth microdilution assays for MIC/MEC assessment were performed as described previously ([33]). All antifungal assays with C. neoformans were performed at 37°C. Antifungal susceptibility testing for C. albicans was performed in the presence of a uniform 1 μg/mL concentration of fluconazole to sensitize the organism to calcineurin inhibition. MICs/minimum effective concentrations (MECs) were determined for each of the novel analogs against the three major human fungal pathogens, A. fumigatus, C. neoformans, and C. albicans. […] Thus, analogs of FK506 and FK520 can tolerate up to 100-fold reduction in antifungal activity and still be considered for in vivo testing. For C. neoformans, MICs were the most uniform and ranged from 0.2 to 2 μg/mL, which is between 4- and 40-fold reduced for antifungal activity. C. albicans MICs ranged from 0.2 to 6.25 μg/mL, which is between 10- and 312.5-fold reduced for activity. Despite being one of the most difficult to treat fungal infections, all six analogs were active against A. fumigatus with MECs ranging from 1 to 2 μg/mL or a 62.5- to 125-fold reduction in activity.

The structures appear in SMILES notation. Values after ≈ are worked out from the molar mass of the structure shown.

For the molecule `C=CC[C@@H]1/C=C(\C)C[C@H](C)C[C@H](OC)[C@H]2O[C@@](O)(C(=O)C(=O)N3CCCC[C@H]3C(=O)O[C@H](/C(C)=C/[C@@H]3CC[C@@H](O)[C@H](OC)C3)[C@H](C)[C@@H](O)C/C1=N/NC(C)=O)[C@H](C)C[C@@H]2OC` [JH-FK-01, APX879], the MIC came out at 1 µg/mL (≈ 1.16 µM).
